Measurements published in patent US7923462B2, “Catechol derivative, pharmaceutical composition containing the same, use of the catechol derivative, and use of the pharmaceutical composition” (Kissei Pharmaceutical Co., Ltd., priority 2007, dated 2011).

Tests used:
[1] = system: rat cryopreserved hepatocytes; experiment: Rat hepatocyte toxicities (cell viability, ATP activity); format: cell-based; conditions: concentration that shows 50% of the number of viable cells of control, 4 hours at 37° C.
[2] = system: unilateral 6-hydroxydopamine-lesioned hemi-Parkinsonian rats; experiment: Potentiation of the efficacy of L-dopa, turning behavior; format: in vivo, Sprague-Dawley rats; conditions: 10 mg/kg oral with 5 mg/kg L-dopa and 30 mg/kg carbidopa; for Total counts: contralateral rotation counts; for Duration: duration of contralateral turning response
recombinant human COMT = target: T1, recombinant human COMT (Homo sapiens, UniProt P21964); experiment: Human COMT inhibitory potency; format: biochemical; conditions: catechol substrate, [3H]-S-adenosyl-L-methionine, 37° C. 30 minutes
T1 construct: GST (N, cleaved yes); made in house; host or cells: E. coli BL21 (DE3) CODON PLUS RP
T1 sequence (P21964 with tags, fused parts or gaps): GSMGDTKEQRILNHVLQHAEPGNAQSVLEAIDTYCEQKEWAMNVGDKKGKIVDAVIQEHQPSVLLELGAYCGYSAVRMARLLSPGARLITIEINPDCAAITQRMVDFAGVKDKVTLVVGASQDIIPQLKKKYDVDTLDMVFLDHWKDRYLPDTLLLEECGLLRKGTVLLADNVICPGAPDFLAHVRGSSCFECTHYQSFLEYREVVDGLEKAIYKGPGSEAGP

[3] = Evaluation of plasma L-dopa concentration; format: in vivo, Sprague-Dawley rats; conditions: percentage of control group, test compound 3 mg/kg oral, blood 2 hours later; for Plasma L-dopa (%) 4 hour: L-dopa 5 mg/kg and carbidopa 30 mg/kg oral 4 hours after; for Plasma L-dopa (%) 6 hour: L-dopa 5 mg/kg and carbidopa 30 mg/kg oral 6 hours after

Row | Structure (SMILES) | EC50 [1] [µM] | Total counts [2] | Duration [2] [min] | IC50 (recombinant human COMT) [µM] | Plasma L-dopa (%) 4 hour [3] [%] | Plasma L-dopa (%) 6 hour [3] [%]
1 | CC(=O)c1c(-c2noc(C)n2)cc(O)c(O)c1[N+](=O)[O-] [Compound 1-2] | 645 | 2103.0 | 312.5 |  |  | 
2 | Cc1nc(-c2cc(O)c(O)c([N+](=O)[O-])c2C(=O)C(C)C)no1 [Compound 1-3, 1-[3,4-dihydroxy-6-(5-methyl-[1,2,4]-oxadiazol-3-yl)-2-nitrophenyl]-2-methylpropane-1-one] | 698 |  |  | 0.0081 |  | 
3 | Cc1nc(-c2cc(O)c(O)c([N+](=O)[O-])c2C(=O)c2ccccc2)no1 [Compound 1-1, [3,4-Dihydroxy-6-(5-methyl-[1,2,4]oxadiazol-3-yl)-2-nitro-phenyl]phenylmethanone] | 683 | 2060.8 | 293.8 | 0.0094 | 182.9 ± 5.0 | 189.2 ± 32.8
4 | COCc1nc(-c2cc(O)c(O)c([N+](=O)[O-])c2C(=O)OC)no1 [Compound 1-9] | > 1000 |  |  | 0.0077 |  | 
5 | Cc1nc(-c2cc(O)c(O)c([N+](=O)[O-])c2C(=O)C(=O)N(C)C2CCCCC2)no1 [Compound 1-41] |  |  |  | 0.0047 |  | 
6 | Cc1nc(-c2cc(O)c(O)c([N+](=O)[O-])c2C(=O)c2ccccc2F)no1 [Compound 1-22] | 523 |  |  | 0.0083 |  | 
7 | Cc1nc(-c2cc(O)c(O)c([N+](=O)[O-])c2C(=O)C2CCCCC2)no1 [Compound 1-20] |  |  |  | 0.0087 |  | 
8 | Cc1ccc(C(=O)c2cc(O)c(O)c([N+](=O)[O-])c2)cc1 [Tolcapone, 3,4-dihydroxy-4′-methyl-5-nitro-benzophenone, reference compound] | 34.3 |  |  |  |  | 
9 | COC(=O)c1c(-c2noc(C)n2)cc(O)c(O)c1[N+](=O)[O-] [Compound 1-5, methyl 3,4-dihydroxy-6-(5-methyl-[1,2,4]-oxadiazol-3-yl)-2-nitrobenzoate] | > 1000 | 2051.9 | 321.3 | 0.0093 |  | 
10 | Cc1noc(-c2cc(O)c(O)c([N+](=O)[O-])c2)n1 [Comparative example 1, 5-(3-methyl-[1,2,4]oxadiazol-5-yl)-3-nitro-benzene-1,2-diol, reference compound] | 172 |  |  | 0.0132 | 143.3 ± 13.3 | 106.9 ± 18.2
11 | Cc1nc(-c2cc(O)c(O)c([N+](=O)[O-])c2C(=O)C(=O)NC2CCCCC2)no1 [Compound 1-40] |  |  |  | 0.0088 |  | 
12 | CCOC(=O)c1c(-c2noc(C)n2)cc(O)c(O)c1[N+](=O)[O-] [Compound 1-14] |  | 1678.4 | 275.0 |  |  | 
13 | Cc1nc(-c2cc(O)c(O)c([N+](=O)[O-])c2C(=O)c2ccno2)no1 [Compound 1-24] | > 1000 |  |  | 0.0076 |  | 
14 | CCOCCc1nc(-c2cc(O)c(O)c([N+](=O)[O-])c2C(C)=O)no1 [Compound 1-37] |  |  |  | 0.0047 |  | 
